{"source": "patent US6355629B2", "about": "“Prodrugs with enhanced penetration into cells” (D-Pharm Ltd., priority 1993, dated 2002)", "key": {"[1]": {"system": "metrazol induced convulsions and death", "assay": "Metrazol anticonvulsant test (prevention of convulsions and/or death)", "format": "in vivo, mice", "conditions": "for ED100: mice, one hour before s.c. metrazol (80 mg/kg), 30 minutes observation, TVA16 i.p.", "experimental": "A test sample of TVA16 was administered i.p. (0.01 to 100 mg/kg) to a group of three mice, one hour before an s.c. dose of metrazol (80 mg/kg). An effective dose was the amount which prevented convulsions (scored 2 points per animal) and/or death (scored 1 point per animal) in the subsequent 30 minutes."}, "rat hearts": {"system": "rat hearts", "assay": "Ex-vivo rat heart Low-flow-Reperfusion Langendorff model", "text": "Low-flow Reperfusion Langendorff's heart (Meely and Rovetto, 1975, METHODS IN ENZYMOLOGY, v39:43-60) is an established ex vivo model of a human ischemic heart. A severe decrease in perfusion pressure (PP) below 20 mm Hg (low-flow period) causes sinus bradycardia culminating by stable AV block (“AVB”; 10 out of 11 hearts) frequently followed by ventricular arythmia. Restoration of perfusion pressure causes paroxysmal tachyarrhythmia followed by irreversable ventricular fibrillation (VF).\nThe experiments were preformed ex vivo on 39 rat hearts. Heart electrical activity and perfusion pressure were stable following 15 min., each. Perfusion buffer was supplemented with DP16 (1.0 μg/l) following the stable AV block during low flow perfusion and during the Reperfusion period.\nThe experimental protocol documented by FIG. 16 included periods of Normal Coronary Flow (FIG. 6, NF, panel 1) followed by Low-Flow (LF) and then by Normal flow-reperfusion (NF-Rp) (panels 2 and 3, respectively).\nThe experiments were performed by addition of DP16 (0.5-500 μg/l) to the perfusion buffer after AV block establishment."}, "[2]": {"system": "rat model of permanent cerebral ischemia", "assay": "Bilateral permanent cerebral ischemia model (common carotid artery ligation)", "format": "in vivo", "conditions": "rats, i.p. 0.001-0.1 mg/kg following artery ligation; p<0.01; FIG. 2", "experimental": "Bilateral ligation of the common carotid arteries is the simplest and most direct approach for inducing permanent partial ischemia. In the rats there is almost 64% mortality 24 h later. The causes of mortality are largely brain swelling (edema) and focal lesions (infarcts). Permanent partial global is achieved by isolation of the common carotid artery through an incision on the ventral surface of the neck. The salivary glands are moved laterally and the carotid sheath exposed. Both the vagus and sympathetic nerves are separated from the common carotid artery, which is then permanently ligated. Sprague-Dawley rats (250-300 g) were anesthetized with halothane or by intramuscular injection of 0.1 ml Ketamine (0.1 g/ml, Parke Davis UK) and 0.1 ml Rompun (2%, Bayer, FRG) per 300 g body weight. DP16 was administered intraperitoneally (i.p., 0.001-0.1 mg/kg) when appropriate following the artery ligation. Every experimental and control group included 14 male rats. Statistical analysis was performed according to t-test criteria."}, "[3]": {"system": "post-pilocarpine-seizure-cardiopathy (PSCP)", "assay": "Post-pilocarpine-seizure cardiopathy (PSCP) model, in vivo ECG", "parameters": "species or system Sprague-Dawley rats", "experimental": "(§1) Adult (2-3 months) male Sprague-Dawley rats were used for all experiments. They were fed with standard briquette chow with water ad libitum and were maintained in standard plastic cages (4-5 individuals in each cage) under natural illumination. A pilocarpine-scopolamine epileptic status model (pilocarpine) was performed as described earlier. In a group of 23 rats, pilocarpine was administered i.p. in different doses which ranged from 100 to 400 mg/kg body weight (B/W) for different periods of time; a second group of 17 rats was treated with DP16 prior to pilocarpine administration, wherein the DP16 was injected for 30 min before pilocarpine in the next dose range and its effect was investigated in the ensuing periods.\n(§2) In vivo ECG (Birtcher-Cardio-Tracer, model 375, USA) in three standard leads were recorded under ketamine anesthesia (3.3 mg/ky Imalgene 100, Rhone Merieux, France and 7 mg/kg Rompun, Bayer Leverkusen, Germany, i.m.). […] In the case of constant PP the volume of effluent flow was measured on electron balance (Precisa 1000C-3000D, Switzerland). […] Direct ECG were recorded from ventricular apex (lead 1), auriculum (lead 2) and in-between (lead 3). The coronary vessel's perfusion resistance (CVPR) was calculated in arbitrary units as follows: PP/flow/heart weight. […]"}, "[4]": {"system": "metrazol induced seizures (myoclonic jerks)", "assay": "Metrazol minimal seizures test", "format": "in vivo, BALB/c mice", "conditions": "30 min before Metrazol s.c.", "experimental": "Testing of DP16 as a possible antiepileptic drug was performed on 3-4 week old male BALB/c mice (18-27 g). Animals were maintained on an adequate diet and allowed free access to food and water except briefly during the experimental period. Animals were separately housed for one hour in transparent plastic cages before treatment and during the experimental period. Drugs were dissolved in normal saline with injection volume adjusted to 0.01 ml/g of body weight. DP16 was administered i.p., in doses ranging from 0.1 to 300 μg/kg: (0.1 μg/kg: n=10, 5 μg/kg: n=10, 25 μg/kg: n=20, 75 μg/kg: n=20, 150 μg/kg: n=20, and 300 μg/kg: n=10 animals respectively). Control animals received injections i.p. of normal saline. DP16 or saline administration followed in 30 minutes by Metrazol ([…], s.c.). […] Absence or relative delay of myoclonic jerks (MJ) in the experimental group was considered as indication of possible antiepileptic activity. Data were subjected to chi-square analysis with the computer statistic package “StatViewII”,"}, "[5]": {"system": "isoproterenol induced myocardial damage", "assay": "Isoproterenol induced myocardial damage", "format": "in vivo, Sprague-Dawley rats", "experimental": "Administration of the potent β-adrenoreceptor agonist isoproterenol (ISO) is commonly accepted model of experimental myocardial pathology. The cardioprotective effect of DP16 was tested on 82 Sprague-Dawley female rats weighing 250-350 g. Myocardial damage was induced in rats by two consecutive injections of ISO ([…], s.c.). When appropriate, the injections of ISO were followed in 30 and 180 minutes by DP16 (0.01 μg/kg, i.p.). The effect of DP16 was estimated by ECG analysis and determination of serum glutamate-oxaloacetate transaminase (SGOT) and lactatdehydrogenase (LDH) activity. Mortality of control rats after ISO intervention was 17.1±5.9% (7 out of 41). […] Pathological signs on ECG were aggravated during the experimental period. […] Administration of DP16 decreased mortality in 2 cases (2 out of 30). […] Pathological displacement of the ST-segment was found only on 28 and 40% of ECG (in 24 and in 48 hours following ISO respectively)."}, "[6]": {"system": "pilocarpine induced epileptic seizures", "assay": "Pilocarpine based model of experimental epilepsy", "format": "in vivo, rats", "experimental": "Acetylcholine, acetylcholinesterase inhibitors and acetylcholine analogues are effective epileptogenic agents when applied intracerebrally or systematically (see ref. in Leite et al., Neurosci. & Biobeh. Rev., 1990, 14:511-17). […] Systemic injections of the pilocarpine, a potent muscarinic cholinergic agonist, are capable of producing a sequence of behavioral alterations including stirring spells, facial automatisms and motor limbic seizures, that develop over 1-2 hours and build progressively into limbic status and following by general status epilepticus.\nImmediately following injection of pilocarpine, akinesia, ataxic lurching, facial automatism and […] dominated the animals' behavior. Further development of epileptic events is dose-dependent. Administration of pilocarpine in doses of 300-350 mg/kg causes appearance of limbic seizures with rearing, forelimb clonus, salivation, intense masticatory jaw movements and falling. Motor limbic seizures commenced after 20-30 min., recurred every 2-8 min and lead to status epilepticus. Increase of the dose of pilocarpine up-to 400mg/kg abolished limbic seizures and after 15-25 min of initial behavioral alterations causes fatal general tonic-clonic convulsions. We consider this dose as the LD100."}, "[7]": {"system": "isolated hearts from pilocarpine-treated rats", "assay": "Perfusion-Hypoxia-Reperfusion isolated Langendorff heart from pilocarpine-treated rats", "parameters": "species or system Sprague-Dawley rats", "conditions": "treatment prior to pilocarpine; initial and final periods of perfusion", "experimental": "as §1, §2"}, "[8]": {"system": "lymphocytes from donor blood and from the blood of an asthmatic patient", "assay": "Intracellular free [Ca2+]i by flow cytometry with fluo-3/AM", "format": "cell-based, human", "conditions": "in either stimulated or untreated cells", "experimental": "Intracellular free [Ca^2+]i content was monitored by flow cytometry using the Ca^2+-sensitive dye fluo-3/AM (Molecular Probe Inc., OR)(Minta, Kao and Tsien, 1989, J. Biol. Chem. 264:8171-8178). Cells obtained from donor blood and those from the blood of an asthmatic patient were further washed twice in DMEM and resuspended to a concentration of 10^7 cells/ml. Fluo-3/AM (1 mM) was prepared in DMSO augmented with the nonionic surfactant Pluronic F-127 (Wyandotte Corp., Mich.). Aliquots of fluo-3/AM stock solution were added to cell suspensions in DMEM/HEPES at a final concentration of 3 μM (loading buffer). Loading was allowed to proceed for 30 min. at 37° C. and continued for 1 hour at 23° C. with gentle agitation. Cells were then adjusted to desired concentrations using fresh DMEM/HEPES, supplemented with 2% horse serum. Autofluorescence was eliminated by setting the threshold sensitivity above the levels obtained in absence of dye. Fluorescence intensity data was collected from 5000 single cells and values were expressed as arbitrary fluorescence units. Prodrug-1 (1 mM) was prepared in DMSO and added when appropriate at a final concentration of 3 μM to the cells for 5 min. prior to calcium treatment.\nLymphocytes from donor blood and from the blood of an asthmatic patient were exposed to prodrug-1. […]"}}, "note": "Where two headings read alike, the source gives them in different places.", "data": [{"smiles": "CN1C(=O)CN=C(c2ccccc2)c2cc(Cl)ccc21", "note": "[diazepam]", "values": [{"measurement": "ED100", "setting": "[1]; Mus musculus, read-out: ED100", "value": 2.5, "unit": "mg/kg"}]}, {"smiles": "CCCC(C)(COC(N)=O)COC(N)=O", "note": "[meprobamate]", "values": [{"measurement": "ED100", "setting": "[1]; Mus musculus, read-out: ED100", "value": 200, "unit": "mg/kg"}]}, {"smiles": "CCCCCCCCCCCCCCCC(=O)OCC(COP(=O)([O-])OCC[N+](C)(C)C)OC(=O)CN(CC(=O)O)c1ccccc1OCCOc1ccccc1N(CC(=O)O)CC(=O)O", "note": "(stereo not drawn) [DP16]", "values": [{"measurement": "complete restoration of AV synchronism", "setting": "rat hearts; 1.0 μg/l in perfusion buffer after AV block establishment", "value": "11 out of 16"}, {"measurement": "decreased level of AVB and prevented ventricular fibrillation", "setting": "rat hearts; 1.0 μg/l, additional cases of the 16 experiments", "value": 5, "unit": "cases"}, {"measurement": "efficiency in resolving atrio-ventricular blockade and preventing ventricular fibrillation compared to BAPTA and BAPTA-AM", "setting": "rat hearts; FIG. 7", "value": "much better efficiency"}, {"measurement": "full restoration of the sinus rhythm during reperfusion", "setting": "rat hearts; reperfusion period", "value": "11 out of 16"}, {"measurement": "decrease of post-ischemic mortality compared with control", "setting": "[2]", "value": 250, "unit": "%"}, {"measurement": "ECG alterations in the phase of stabilization", "setting": "[3]; 3-14 days after pilocarpine, p<0.01 vs not protected", "value": "prevents the appearance of ECG alterations"}, {"measurement": "normalized electrical activity (ECG) at the acute stage of PSCP", "setting": "[3]; DP16 prior to pilocarpine, 24h after pilocarpine", "value": "5 out of 7"}, {"measurement": "response to metrazol (myoclonic jerks)", "setting": "[4]; 0.1 μg/kg i.p.", "value": "same response to metrazol as control"}, {"measurement": "response to metrazol (myoclonic jerks)", "setting": "[4]; 5 to 300 μg/kg i.p., p<0.001", "value": "significant protective effect"}, {"measurement": "percentage of animals exhibiting abnormal level of SGOT and LDH activity", "setting": "[5]; 0.01 μg/kg i.p.", "value": "substantially decreased"}, {"measurement": "mortality", "setting": "[5]; 0.01 μg/kg i.p. 30 and 180 minutes after ISO, control 7 out of 41", "value": "2 out of 30"}, {"measurement": "pathological displacement of the ST-segment, share of ECG", "setting": "[5]; 24 hours following ISO", "value": 28, "unit": "%"}, {"measurement": "pathological displacement of the ST-segment, share of ECG", "setting": "[5]; 48 hours following ISO", "value": 40, "unit": "%"}, {"measurement": "dose range with dose dependent therapeutic effects", "setting": "[6]; FIG. 4, reduction in fatal seizures", "value": "10^−8 to 10^−5 mg/kg"}, {"measurement": "effect on death and epileptiform manifestations", "setting": "[6]; administered prior to pilocarpine", "value": "prevented death in the animals and decreased epileptiform manifestations"}, {"measurement": "estimated therapeutic index (ET)", "setting": "[6]; pilocarpine 400 mg/kg, rats, 0.5 mg/kg/5×10^−7 mg/kg", "value": "1×10^6"}, {"measurement": "coronary vessel's perfusion resistance (CVPR) regulation", "setting": "[7]", "value": "prevents damage of CVPR regulation"}]}, {"smiles": "CCC1(c2ccccc2)CCC(=O)NC1=O", "note": "(stereo not drawn) [glutethimide]", "values": [{"measurement": "ED100", "setting": "[1]; Mus musculus, read-out: ED100", "value": 150, "unit": "mg/kg"}]}, {"smiles": "CCCCCCCCCCCCCCCC(=O)OCC(COP(=O)([O-])OCC[N+](C)(C)C)OC(=O)C(CCC)CCC", "note": "(stereo not drawn) [TVA16]", "values": [{"measurement": "dose response curve compared to valproic acid itself", "setting": "[1]; FIG. 8, doses as mg of valproic acid per kg body weight", "value": "improvement"}, {"measurement": "potency relative to sodium valproate", "setting": "[1]; from Table 1", "value": "more than 500 ×"}, {"measurement": "ED100", "setting": "[1]", "value": 20, "unit": "mg/kg"}]}, {"smiles": "CC[C@@H]1C(=O)OC[C@@H]1Cc1cncn1C", "note": "[pilocarpine, reference compound]", "values": [{"measurement": "LD100 (fatal general tonic-clonic convulsions)", "setting": "[6]; rats", "value": 400, "unit": "mg/kg"}]}, {"smiles": "C[C@]12N[C@H](Cc3ccccc31)c1ccccc12", "note": "[MK-801]", "values": [{"measurement": "ED100", "setting": "[1]; Mus musculus, read-out: ED100", "value": 0.5, "unit": "mg/kg"}]}, {"smiles": "CCC1(c2ccccc2)C(=O)NC(=O)NC1=O", "note": "[phenobarbital]", "values": [{"measurement": "ED100", "setting": "[1]; Mus musculus, read-out: ED100", "value": 50, "unit": "mg/kg"}]}, {"smiles": "O=C(O)CN(CC(=O)O)c1ccccc1OCCOc1ccccc1N(CC(=O)O)CC(=O)O", "note": "[BAPTA, 1,2-bis-(2-aminophenoxy)ethane-N,N,N′,N′-tetraacetic acid]", "values": [{"measurement": "reducing the intracellular calcium levels", "setting": "[8]", "value": "ineffective"}]}]}
